Results published in patent US20150175655A1 (priority 2012, published 2015).
pKi: −log10 of the molar value.

Biological target: T1, NS3 genotype 1b protease (Hepatitis C virus genotype 1b, UniProt Q9WMX2, E1202G)
T1 construct: Purified NS3 protease domain (amino acids 1-181) of the genotype 1b and 3a virus were generated as above; K3 hexahistidine tag (N); rTEV protease cleavage site (N); made in house; host or cells: E. coli BL21AI, pET28 vector p28-N6H-Tev-NS3(181)1b
Assay: Ki determination, NS3 protease genotype 1b (fluorogenic depsipeptide substrate)
Type: biochemical
Conditions: not given
Excerpt: The coding sequence of the genotype 1b (con-1 strain) HCV NS3 protease domain was PCR amplified from a plasmid encoding the I389luc-ubi-neo/NS3-3′/ET replicon (Reblikon, Mainz, Germany). The 5′-PCR primer was designed to encode an N-terminal K3 hexahistidine tag and to insert an in-frame recombinant Tobacco Etch virus (rTEV) protease cleavage site into the NS3 coding sequence. The resulting DNA fragment was cloned into the pET28 protein expression vector (Invitrogen, Carlsbad, Calif.) yielding the p28-N6H-Tev-NS3(181)1b.
BL21AI bacteria (Invitrogen, Carlsbad, Calif.) were transformed with genotype 1b or 3 NS3 expression vectors and used to inoculate a 20 L fermentation vessel (Sartorius BBI System Inc., Bethlehem, Pa.), containing 18 L of fresh 2YT medium supplemented with 50 μg/mL kanamycin. When cell densities reached an OD600 of 1, the temperature of the cultures was reduced from 37° C. to 28° C. and induction was immediately initiated by the addition of 30 μM ZnSO4, 14 mM L-arabinose and 1 mM Isopropyl β-D-thiogalactoside (IPTG) final concentrations. Cells were harvested by centrifugation four hours post-induction and were stored as frozen pellets at −80° C. prior to NS3 protein purification.
Cell pellets were thawed and resuspended at 10 mL/g cells in lysis buffer containing 50 mM tris pH 7.6, 300 mM NaCl, 0.1% 3-[(3-cholamidopropyl)dimethylammonio]-1-propanesulfonate (CHAPS), 5% glycerol, and 2 mM β-mercaptoethanol. Cell suspensions were then sonicated, filtered through cheesecloth, and passed three times through a microfluidizer at 18,000 pounds/in^2. The resulting lysates were centrifuged at 15500 rpm for 45 minutes and supernatants were loaded onto a HisTrap HP column (GE Lifesciences) pre-equilibrated with five volumes of Ni buffer A (50 mM tris pH 7.6, 300 mM NaCl, 0.1% CHAPS, 5% glycerol, 2 mM β-mercaptoethanol, 50 mM imidazole-HCl). Proteins were eluted with a 0-100% gradient of Ni buffer A plus 500 mM imidazole-HCl and fractions were collected and pooled. The HisTrap pool was diluted 1:10 with SP-A buffer (50 mM tris pH 7.0, 10% glycerol, 2 mM dithiothreitol (DTT)) and loaded onto a HiTrap SP-HP column (GE Lifesciences) equilibrated with SP-A buffer. NS3 protease was eluted with a 0-100% SP-B buffer (SP-A buffer plus 1 M NaCl) gradient. Concentrated pools of NS3-containing SP fractions were aliquoted, snap frozen in liquid nitrogen and stored at −80° C.
Purified NS3 protease domain (amino acids 1-181) of the genotype 1b and 3a virus were generated as above.
Reactions were run at room temperature in buffer consisting of 50 mM HEPES, 40% glycerol, 0.05% Triton X-100, 10 mM DTT, and 10% DMSO. The final assay solutions contained 50 pM NS3 genotype 1b protease or 200 pM genotype 3a protease, 20 μM NS4A peptide, and 4 μM substrate (genotype 1 b) or 2 μM substrate (genotype 3a). Inhibitor concentrations varied from 100 nM to 5 pM in 3-fold dilutions, and no-inhibitor controls were included.
Compound dilutions were made in DMSO at 20× final concentration. Reaction mixtures were prepared in 96-well assay plates. A solution of enzyme and NS4A peptide in assay buffer (25 μL volume with both reagents at 4× final concentration) was mixed with 45 μL assay buffer and 5 μL of either inhibitor or DMSO, and pre-incubated at room temperature for 1 hour. The reaction was started by addition of 25 μL substrate solution at 4× final concentration. Plates were mixed vigorously for 5-10 seconds and reactions were allowed to proceed for 90 minutes. fluorescence was measured every 30 s between 90 and 120 minutes reaction time using a Tecan InfiniTe M1000 or PerkinElmer Envision multimode plate reader with an excitation wavelength of 340 nm and an emission wavelength of 490 nm.
To determine the K, rates were plotted as a function of inhibitor concentration, and the data were fit with equation 1 (Morrison, J. F., Biochimica et Biophysica Acta 1969, 185, 269-286) to calculate Ki^app using GraphPad Prism 5.

Row | SMILES | pKi
1 | CC[C@@H]1[C@@H]2CN(C(=O)[C@H](C(C)(C)C)NC(=O)O[C@@H]3C[C@H]3CCCCC(F)(F)c3nc4ccc(OC)cc4nc3O2)[C@@H]1C(=O)N[C@]1(C(=O)NS(=O)(=O)C2(C)CC2)C[C@H]1C(F)F [Example 17, (1aR,5S,8S,9S,10R,22aR)-5-tert-butyl-N-[(1R,2R)-2-(difluoromethyl)-1-{[(1-methylcyclopropyl)sulfonyl]carbamoyl}cyclopropyl]-9-ethyl-18,18-difluoro-14-methoxy-3,6-dioxo-1,1a,3,4,5,6,9,10,18,19,20,21,22,22a-tetradecahydro-8H-7,10-methanocyclopropa[18,19][1,10,3,6]dioxadiazacyclononadecino[11,12-b]quinoxaline-8-carboxamide] | 10.40
2 | COc1ccc2nc3c(nc2c1)O[C@H]1CN(C(=O)[C@H](C(C)(C)C)NC(=O)O[C@@H]2C[C@H]2CCCCC3(F)F)[C@H](C(=O)N[C@]2(C(=O)NS(=O)(=O)C3(C)CC3)C[C@H]2C(F)F)[C@@H]1C [Example 46, (1aR,5S,8S,9S,10R,22aR)-5-tert-butyl-N-[(1R,2R)-2-(difluoromethyl)-1-{[(1-methylcyclopropyl)sulfonyl]carbamoyl}cyclopropyl]-18,18-difluoro-14-methoxy-9-methyl-3,6-dioxo-1,1a,3,4,5,6,9,10,18,19,20,21,22,22a-tetradecahydro-8H-7,10-methanocyclopropa[18,19][1,10,3,6]dioxadiazacyclononadecino[11,12-b]quinoxaline-8-carboxamide] | 10.52
3 | CCOc1ccc2nc3c(nc2c1)O[C@H]1CN(C(=O)[C@H](C(C)(C)C)NC(=O)O[C@@H]2C[C@H]2CCCCC3)[C@H](C(=O)N[C@]2(C(=O)NS(=O)(=O)C3(C)CC3)C[C@H]2C(F)F)[C@@H]1CC [Example 69, (1aR,5S,8S,9S,10R,22aR)-5-tert-butyl-N-[(1R,2R)-2-(difluoromethyl)-1-{[(1-methylcyclopropyl)sulfonyl]carbamoyl}cyclopropyl]-14-ethoxy-9-ethyl-3,6-dioxo-1,1a,3,4,5,6,9,10,18,19,20,21,22,22a-tetradecahydro-8H-7,10-methanocyclopropa[18,19][1,10,3,6]dioxadiazacyclononadecino[11,12-b]quinoxaline-8-carboxamide] | 10.15
4 | COc1ccc2nc3c(nc2c1)O[C@H]1CN(C(=O)[C@H](C(C)(C)C)NC(=O)O[C@]2(C)C[C@H]2CCCCC3(F)F)[C@H](C(=O)N[C@]2(C(=O)NS(=O)(=O)C3(C)CC3)C[C@H]2C(F)F)[C@@H]1C (single isomer, unassigned) [Example 76] | 10.52
5 | CC[C@@H]1[C@@H]2CN(C(=O)[C@H](C(C)(C)C)NC(=O)O[C@@H]3C[C@H]3CCCC3CC3c3nc4ccc(OC)cc4nc3O2)[C@@H]1C(=O)N[C@]1(C(=O)NS(=O)(=O)C2(C)CC2)C[C@H]1C(F)F (stereo partly drawn) [Example 36, (1aR,5S,8S,9S,10R,21aR)-5-tert-butyl-N-[(1R,2R)-2-(difluoromethyl)-1-{[(1-methylcyclopropyl)sulfonyl]carbamoyl}cyclopropyl]-9-ethyl-14-methoxy-3,6-dioxo-1a,3,4,5,6,9,10,17b,18,18a,19,20,21,21a-tetradecahydro-1H,8H-7,10-methanodicyclopropa[13,14:18,19][1,10,3,6]dioxadiazacyclononadecino[11,12-b]quinoxaline-8-carboxamide] | 10.00
6 | CC[C@@H]1[C@@H]2CN(C(=O)[C@H](C(C)(C)C)NC(=O)O[C@]3(C)CCC[C@H]3CCCCCc3nc4ccc(OC)cc4nc3O2)[C@@H]1C(=O)N[C@]1(C(=O)NS(=O)(=O)C2(C)CC2)C[C@H]1C(F)F [Example 39, (3aR,7S,10S,11S,12R,24aR)-7-tert-butyl-N-[(1R,2R)-2-(difluoromethyl)-1-{[(1-methylcyclopropyl)sulfonyl]carbamoyl}cyclopropyl]-11-ethyl-16-methoxy-3a-methyl-5,8-dioxo-1,2,3,3a,5,6,7,8,11,12,20,21,22,23,24,24a-hexadecahydro-10H-9,12-methanocyclopenta[18,19][1,10,3,6]dioxadiazacyclononadecino[11,12-b]quinoxaline-10-carboxamide] | 10.10
7 | CC[C@@H]1[C@@H]2CN(C(=O)[C@H](C(C)(C)C)NC(=O)O[C@@H]3C[C@H]3CCCCCc3nc4ccc(OC)cc4nc3O2)[C@@H]1C(=O)N[C@]1(C(=O)NS(=O)(=O)C2(C)CC2)C[C@H]1C(F)F [Example 1, (1aR,5S,8S,9S,10R,22aR)-5-tert-butyl-N-[ (1R,2R)-2-(difluoromethyl)-1-{[(1-methylcyclopropyl)sulfonyl]carbamoyl}cyclopropyl]-9-ethyl-14-methoxy-3,6-dioxo-1,1a,3,4,5,6,9,10,18,19,20,21,22,22a-tetradecahydro-8H-7,10-methanocyclopropa[18,19][1,10,3,6]dioxadiazacyclononadecino[11,12-b]quinoxaline-8-carboxamide] | 10.52
8 | CC[C@@]12C[C@H]1CCCCCc1nc3ccc(OC)cc3nc1O[C@H]1CN(C(=O)[C@H](C(C)(C)C)NC(=O)O2)[C@H](C(=O)N[C@]2(C(=O)NS(=O)(=O)C3(C)CC3)C[C@H]2C(F)F)[C@@H]1C [Example 43, (1aR,5S,8S,9S,10R,22aR)-5-tert-butyl-N-[(1R,2R)-2-(difluoromethyl)-1-{[(1-methylcyclopropyl)sulfonyl]carbamoyl}cyclopropyl]-1a-ethyl-14-methoxy-9-methyl-3,6-dioxo-1,1a,3,4,5,6,9,10,18,19,20,21,22,22a-tetradecahydro-8H-7,10-methanocyclopropa[18,19][1,10,3,6]dioxadiazacyclononadecino[11,12-b]quinoxaline-8-carboxamide] | 10.22

Same assay, conditions: NS3 protease genotype 1b, 50 pM enzyme, 20 μM NS4A peptide, 4 μM substrate; read-out: Ki 1B

Row | SMILES | pKi
9 | CC[C@@H]1[C@@H]2CN(C(=O)[C@H](C(C)(C)C)NC(=O)O[C@]3(C(F)(F)F)CCCC3CCCCCc3nc4ccc(OC)cc4nc3O2)[C@@H]1C(=O)N[C@]1(C(=O)NS(=O)(=O)C2(C)CC2)C[C@H]1C(F)F (stereo partly drawn) [Example 9, (7S,10S,11S,12R)-7-tert-butyl-N-[(1R,2R)-2-(difluoromethyl)-1-{[(1-methylcyclopropyl)sulfonyl]carbamoyl}cyclopropyl]-11-ethyl-16-methoxy-5,8-dioxo-3aR-(trifluoromethyl)-1,2,3,3a,5,6,7,8,11,12,20,21,22,23,24,24a-hexadecahydro-10H-9,12-methanocyclopenta[18,19][1,10,3,6]dioxadiazacyclononadecino[11,12-b]quinoxaline-10-carboxamide] | 9.82
10 | CC[C@@H]1[C@@H]2CN(C(=O)[C@H](C(C)(C)C)NC(=O)O[C@@]3(C(F)(F)F)CCCC3CCCCCc3nc4ccc(OC)cc4nc3O2)[C@@H]1C(=O)N[C@]1(C(=O)NS(=O)(=O)C2(C)CC2)C[C@H]1C(F)F (stereo partly drawn) [Example 10, (7S,10S,11S,12R)-7-tert-butyl-N-[(1R,2R)-2-(difluoromethyl)-1-{[(1-methylcyclopropyl)sulfonyl]carbamoyl}cyclopropyl]-11-ethyl-16-methoxy-5,8-dioxo-3aS-(trifluoromethyl)-1,2,3,3a,5,6,7,8,11,12,20,21,22,23,24,24a-hexadecahydro-10H-9,12-methanocyclopenta[18,19][1,10,3,6]dioxadiazacyclononadecino[11,12-b]quinoxaline-10-carboxamide] | 9.80
